Data from PubChem BioAssay AID1918933 (Molecular Pharmacology Branch, DTP, NCI, 2023).
“And” between values parts separate entries of the source, which are not always exact repeats. Equal values may be shown once.

Test system: 186277-243-T-J2-PDC complex spheroid viability
Assay: Anticancer human tumor 186277-243-T-J2-PDC patient-derived colon adenocarcinoma cell line growth inhibition
Conditions: for viability, T/C: stronger effect = lower value
In short: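 Drug combinations with the LSD1 inhibitor iadademstat tested on tumor cells co-cultured as spheroids with endothelial cells and mesenchymal stem cells. Concentrations descended in half-log increments from clinical Cmax or 10 microM.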

[1] = curve of first compound, second compound 0.1 µM
[2] = curve of first compound, second compound 0.316 µM
[3] = curve of first compound, second compound 1 µM
[4] = curve of first compound, second compound 3.16 µM
[5] = curve of first compound, second compound 10 µM
[6] = second compound 0.1 µM, first compound 0.0316 µM
[7] = second compound 0.1 µM, first compound 0.1 µM
[8] = second compound 0.316 µM, first compound 0.0316 µM
[9] = second compound 0.316 µM, first compound 0.1 µM
[10] = second compound 1 µM, first compound 0.0316 µM
[11] = second compound 1 µM, first compound 0.1 µM
[12] = second compound 3.16 µM, first compound 0.0316 µM
[13] = second compound 3.16 µM, first compound 0.1 µM
[14] = second compound 10 µM, first compound 0.0316 µM
[15] = second compound 10 µM, first compound 0.1 µM
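Note: 7 day exposure to compounds.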
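Throughout, for viability, T/C: 100% = DMSO vehicle control viability.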

Cn1ncnc1C1c2n[nH]c(=O)c3cc(F)cc(c23)NC1c1ccc(F)cc1 (centres undefined)
viability, T/C (compound 0.000316 µM): 101% and 106% | viability, T/C (compound 0.001 µM): 98.5% and 98% | viability, T/C (compound 0.00316 µM): 97.8% and 95.2% | viability, T/C (compound 0.01 µM): 97.5% and 93.7% | viability, T/C (compound 0.0316 µM): 94.1% and 101% | viability, T/C (compound 0.1 µM): 97.3% and 108% | IC50 (curve of compound): > 100 nM

CC[C@@]1(O)C(=O)OCc2c1cc1n(c2=O)Cc2cc3c(CN(C)C)c(O)ccc3nc2-1 + NC1CC1c1ccc(-c2cccc(O)c2)cc1
IC50 [1]: 64.1 nM | IC50 [2]: 58.6 nM | IC50 [3]: 60.9 nM | IC50 [4]: 64.4 nM | IC50 [5]: 56.7 nM | viability, T/C (second compound 0.1 µM, first compound 0.000316 µM): 117% | viability, T/C (second compound 0.1 µM, first compound 0.001 µM): 125% | viability, T/C (second compound 0.1 µM, first compound 0.00316 µM): 153% | viability, T/C (second compound 0.1 µM, first compound 0.01 µM): 116% | viability, T/C [6]: 74.5% | viability, T/C [7]: 34.9% | viability, T/C (second compound 0.316 µM, first compound 0.000316 µM): 101% | viability, T/C (second compound 0.316 µM, first compound 0.001 µM): 96.5% | viability, T/C (second compound 0.316 µM, first compound 0.00316 µM): 139% | viability, T/C (second compound 0.316 µM, first compound 0.01 µM): 118% | viability, T/C [8]: 71.7% | viability, T/C [9]: 31.2% | viability, T/C (second compound 1 µM, first compound 0.000316 µM): 90.7% | viability, T/C (second compound 1 µM, first compound 0.001 µM): 108% | viability, T/C (second compound 1 µM, first compound 0.00316 µM): 127% | viability, T/C (second compound 1 µM, first compound 0.01 µM): 119% | viability, T/C [10]: 73.1% | viability, T/C [11]: 32.5% | viability, T/C (second compound 3.16 µM, first compound 0.000316 µM): 101% | viability, T/C (second compound 3.16 µM, first compound 0.001 µM): 97.8% | viability, T/C (second compound 3.16 µM, first compound 0.00316 µM): 119% | viability, T/C (second compound 3.16 µM, first compound 0.01 µM): 131% | viability, T/C [12]: 76.3% | viability, T/C [13]: 33.6% | viability, T/C (second compound 10 µM, first compound 0.000316 µM): 103% | viability, T/C (second compound 10 µM, first compound 0.001 µM): 96.4% | viability, T/C (second compound 10 µM, first compound 0.00316 µM): 123% | viability, T/C (second compound 10 µM, first compound 0.01 µM): 116% | viability, T/C [14]: 74% | viability, T/C [15]: 26.7%

O=C(C=Cn1cnc(-c2cc(C(F)(F)F)cc(C(F)(F)F)c2)n1)NNc1cnccn1
viability, T/C (compound 0.00316 µM): 98.1% and 93.5% | viability, T/C (compound 0.01 µM): 85.8% and 106% | viability, T/C (compound 0.0316 µM): 23.5% and 84.3% | viability, T/C (compound 0.1 µM): 9.4% and 15.8% | viability, T/C (compound 0.316 µM): 5.65% and 4.97% | viability, T/C (compound 1 µM): 0.55% and 2.09% | IC50 (curve of compound): 19.4 nM and 56.4 nM

CC1(C)CCC(CN2CCN(c3ccc(C(=O)NS(=O)(=O)c4ccc(NCC5CCOCC5)c([N+](=O)[O-])c4)c(Oc4cnc5[nH]ccc5c4)c3)CC2)=C(c2ccc(Cl)cc2)C1 + NC1CCC(NC2CC2c2ccccc2)CC1
IC50 [1]: 4910 nM | IC50 [2]: 4970 nM | IC50 [3]: 5120 nM | IC50 [4]: 5040 nM | IC50 [5]: 4570 nM | viability, T/C [6]: 92% | viability, T/C [7]: 114% | viability, T/C (second compound 0.1 µM, first compound 0.316 µM): 101% | viability, T/C (second compound 0.1 µM, first compound 1 µM): 97.7% | viability, T/C (second compound 0.1 µM, first compound 3.16 µM): 73.5% | viability, T/C (second compound 0.1 µM, first compound 10 µM): 12% | viability, T/C [8]: 106% | viability, T/C [9]: 117% | viability, T/C (second compound 0.316 µM, first compound 0.316 µM): 99.4% | viability, T/C (second compound 0.316 µM, first compound 1 µM): 109% | viability, T/C (second compound 0.316 µM, first compound 3.16 µM): 74.9% | viability, T/C (second compound 0.316 µM, first compound 10 µM): 11.5% | viability, T/C [10]: 100% | viability, T/C [11]: 105% | viability, T/C (second compound 1 µM, first compound 0.316 µM): 106% | viability, T/C (second compound 1 µM, first compound 1 µM): 101% | viability, T/C (second compound 1 µM, first compound 3.16 µM): 77.9% | viability, T/C (second compound 1 µM, first compound 10 µM): 11.3% | viability, T/C [12]: 107% | viability, T/C [13]: 107% | viability, T/C (second compound 3.16 µM, first compound 0.316 µM): 115% | viability, T/C (second compound 3.16 µM, first compound 1 µM): 95.8% | viability, T/C (second compound 3.16 µM, first compound 3.16 µM): 79.2% | viability, T/C (second compound 3.16 µM, first compound 10 µM): 8.73% | viability, T/C [14]: 98.9% | viability, T/C [15]: 107% | viability, T/C (second compound 10 µM, first compound 0.316 µM): 96.6% | viability, T/C (second compound 10 µM, first compound 1 µM): 97.6% | viability, T/C (second compound 10 µM, first compound 3.16 µM): 69.1% | viability, T/C (second compound 10 µM, first compound 10 µM): 9.39%
